In US20250051383A1, “NOVEL FEAZD, NIAZD, AND CUAZD COMPLEXES INCORPORATING 1-(2-HYDROXYPHENYLAZO)-2-NAPHTHOL (H2AZD) FOR BIOLOGICAL APPLICATIONS” (KING FAISAL UNIVERSITY, priority 2023, published 2025):
Values after ≈ are worked out from the molar mass of the structure shown. Like-named read-outs stand apart in the source and are kept apart here.

How the values were obtained:
Assay type in all cases: cell-based
Escherichia coli (−ve) [1] = assay: MIC by repeated dilution
Excerpt: (§1) The MIC, or the lowest concentration of a drug that can inhibit the development of bacteria or fungi, is often used as a starting point in larger preclinical studies of new antibacterial medications. The MIC value was obtained by repeatedly diluting a sample until the desired concentration was reached.

[2] = test system: Staphylococcus aureus (+ve); assay: MIC by repeated dilution
Excerpt: as §1

Bacillus cereus (+ve) [3] = assay: MIC by repeated dilution
Excerpt: as §1

Candida albicans [4] = assay: MIC by repeated dilution
Excerpt: as §1

Aspergillus flavus [5] = assay: MIC by repeated dilution
Excerpt: as §1

[6] = test system: Pseudomonas aeruginosa (−ve); assay: MIC by repeated dilution
Excerpt: as §1

Trichophyton rubrum [7] = assay: MIC by repeated dilution
Excerpt: as §1

Escherichia coli (−ve) [8] = assay: Disc diffusion, inhibition zone and activity index vs chloramphenicol; parameters: activity index (%): concentration or dose not given beside the values; settings: for activity index (%): IZ of test compound/IZ of standard chloramphenicol ×100; for inhibition zone (IZ): disc diffusion
Procedure: (§2) The in vitro antibacterial and antifungal activity of the components was assessed using a series of bacteria (Pseudomonas aeruginosa (−ve), Staphylococcus aureus (+ve), Escherichia coli (−ve), and Bacillus cereus (+ve)) and fungi (Trichophyton rubrum, Aspergillus flavus, and Candida albicans). The disc diffusion method was used to perform the in vitro antimicrobial activity tests. The biological activity of each compound was determined by examining its impact on the size of the inhibition zone, which is a measure of the compound's effectiveness in inhibiting the growth of microorganisms. The inhibitory zone (IZ) surrounding the disc was measured in millimeters. The activity of the current compounds was compared to that of the standard antibiotic chloramphenicol, and the % Activity Index (%=IZ of test compound/IZ of Standard)×100, was evaluated.

[9] = test system: Pseudomonas aeruginosa (−ve); assay: as above; parameters: activity index (%): concentration or dose not given beside the values; settings: for activity index (%): IZ of test compound/IZ of standard chloramphenicol ×100; for inhibition zone (IZ): disc diffusion
Procedure: as §2

[10] = test system: Staphylococcus aureus (+ve); assay: as above; settings: for activity index (%): IZ of test compound/IZ of standard chloramphenicol ×100; for inhibition zone (IZ): disc diffusion
Procedure: as §2

Bacillus cereus (+ve) [11] = assay: as above; settings: for activity index (%): IZ of test compound/IZ of standard chloramphenicol ×100; for inhibition zone (IZ): disc diffusion
Procedure: as §2

Candida albicans [12] = assay: as above; settings: for activity index (%): IZ of test compound/IZ of standard ×100; for inhibition zone (IZ): disc diffusion
Procedure: as §2

Aspergillus flavus [13] = assay: as above; settings: for activity index (%): IZ of test compound/IZ of standard ×100; for inhibition zone (IZ): disc diffusion
Procedure: as §2

Trichophyton rubrum [14] = assay: as above; settings: for activity index (%): IZ of test compound/IZ of standard ×100; for inhibition zone (IZ): disc diffusion
Procedure: as §2

bacteria or fungi = assay: MIC by repeated dilution, summary over the tested bacteria and fungi
Excerpt: as §1

Row | SMILES | activity index (%) (Escherichia coli (−ve) [8]) | inhibition zone (IZ) (Escherichia coli (−ve) [8]) [mm] | activity index (%) [9] [%] | inhibition zone (IZ) [9] [mm] | activity index (%) [10] [%] | inhibition zone (IZ) [10] [mm] | activity index (%) (Bacillus cereus (+ve) [11]) | inhibition zone (IZ) (Bacillus cereus (+ve) [11]) [mm] | activity index (%) (Candida albicans [12]) | inhibition zone (IZ) (Candida albicans [12]) [mm] | activity index (%) (Aspergillus flavus [13]) | inhibition zone (IZ) (Aspergillus flavus [13]) [mm] | activity index (%) (Trichophyton rubrum [14]) | inhibition zone (IZ) (Trichophyton rubrum [14]) [mm] | MIC (Escherichia coli (−ve) [1]) [ppm] | MIC [2] [ppm] | MIC (Bacillus cereus (+ve) [3]) [ppm] | MIC (Candida albicans [4]) [ppm] | MIC (Aspergillus flavus [5]) [ppm] | MIC [6] [ppm] | other results
1 | Oc1ccccc1N=Nc1c(O)ccc2ccccc12 [H2AZD, 1-(2-hydroxyphenylazo)-2-naphthol] | 40.00 | 8 | 44.44 | 8 | 50.00 | 9 | 44.44 | 8 | 38.10 | 8 | 42.11 | 8 | 31.82 | 7 |  |  |  |  |  |  | MIC (Escherichia coli (−ve) [1]; read-out: MIC): 50 µg/mL (≈ 189 µM); MIC ([2]; read-out: MIC): 50 µg/mL (≈ 189 µM); MIC (Bacillus cereus (+ve) [3]; read-out: MIC): 50 µg/mL (≈ 189 µM); MIC (Candida albicans [4]; read-out: MIC): 50 µg/mL (≈ 189 µM); MIC (Aspergillus flavus [5]; read-out: MIC): 50 µg/mL (≈ 189 µM); MIC ([6]; read-out: MIC): 50 µg/mL (≈ 189 µM); MIC (Trichophyton rubrum [7]; read-out: MIC): 50 µg/mL (≈ 189 µM); MIC (bacteria or fungi): ~50 µg/mL (≈ 189 µM)
2 | O.O.O.c1ccc2c(c1)N=Nc1c(ccc3ccccc13)[O][Cu][O]2 [CuAZD] |  | 13 |  | 13 | 77.78 | 14 | 72.22 | 13 | 61.90 | 13 | 63.16 | 12 | 59.09 | 13 | 3.125 | 6.25 | 6.25 | 6.25 | 6.25 | 6.25 | MIC (Trichophyton rubrum [7]): 6.25 ppm
3 | O.O.[Cl][Fe]1[O]c2ccccc2N=Nc2c(ccc3ccccc23)[O]1 [FeAZD] | 60.00 | 12 | 61.11 | 11 | 72.22 | 13 | 66.67 | 12 | 57.14 | 12 | 52.63 | 10 | 50.00 | 11 | 6.25 | 6.25 | 6.25 | 6.25 | 6.25 | 12.5 | MIC (Trichophyton rubrum [7]): 6.25 ppm
4 | O.c1ccc2c(c1)N=Nc1c(ccc3ccccc13)[O][Ni][O]2 [NiAZD] | 55.00 | 11 | 61.11 | 11 | 72.22 | 13 | 61.11 | 11 | 52.38 | 11 | 52.63 | 10 | 45.45 | 10 | 6.25 | 6.25 | 6.25 | 6.25 | 6.25 | 12.5 | MIC (Trichophyton rubrum [7]): 6.25 ppm
